pKi: −log10 of the molar value.
Columns and labels:
[1] = target: PTC of the ribosome; set-up: method as in PMID 23824292; conditions: read-out: Apparent Ki, peptide release; cited from earlier work
[2] = target: PTC of the ribosome; set-up: method as in PMID 23824292; conditions: fold higher Ki than for termination; cited from earlier work
[3] = test system: Escherichia coli strain MG1655; assay: MIC on bacterial growth, wt E. coli (broth micro-dilution); assay type: cell-based; conditions: 500 mg l^−1 highest concentration tested
Description: The four different strains analyzed were wild type (wt) Staphylococcus aureus (strain ATCC 29213), wt Escherichia coli (strain MG1655, K12), a drug-hypersensitive E. coli lpxC mutant D22 (strain MG1655) and an efflux-defective E. coli ΔtolC mutant (strain MG1655). These were grown in cation-adjusted Mueller Hinton II media (MH II, Nordic Biolabs), the standard medium for antibiotic susceptibility testing. For overnight cell cultures one colony from a MH II (Nordic Biolabs) plate was inoculated in 1 ml MH II media in a 10 ml tube and the bacteria was incubated at 37 °C shaking at 190 rpm. Cells from the overnight culture was used for MIC determinations and time-kill experiments.
The minimal inhibitory concentrations (MIC) of the drugs were measured in 96-well round-bottom microtiter plates using cation-adjusted Mueller-Hinton II (MH II) media. All measurements were done with at least three biological replicates. Briefly, bacterial colonies from a non-selective agar plate were re-suspended in 0.9% NaCl to 0.5 McFarland ( ≅1.5×10^8 cfu/ml). The cell suspension was further diluted to ≅5×10^5 cfu/ml (50 µl of bacterial suspension to 10 ml of MHII) and then 90 µl of cell suspension ( ≅5×10^5 […]) was added to each well. […] The MIC value was determined visually as the lowest concentration of drug that inhibited growth.

[4] = test system: Staphylococcus aureus strain ATCC29213; assay: MIC on bacterial growth, wt S. aureus (broth micro-dilution); assay type: cell-based
Description: The minimal inhibitory concentrations (MIC) of the drugs were measured in 96-well round-bottom microtiter plates using cation-adjusted Mueller-Hinton II (MH II) media. All measurements were done with at least three biological replicates. Briefly, bacterial colonies from a non-selective agar plate were re-suspended in 0.9% NaCl to 0.5 McFarland ( ≅1.5×10^8 cfu/ml). The cell suspension was further diluted to ≅5×10^5 cfu/ml (50 µl of bacterial suspension to 10 ml of MHII) and then 90 µl of cell suspension ( ≅5×10^5 cfu/l) was added to each well. […] The MIC value was determined visually as the lowest concentration of drug that inhibited growth.

Molecule	pKi [1]	Ki for peptide bond formation relative to termination reaction [2]	MIC E. coli K12 wt [3]	MIC S. aureus wt [4]
CN(CC[C@H](N)CC(=O)N[C@H]1C=C[C@H](n2ccc(N)nc2=O)O[C@@H]1C(=O)O)C(=N)N [Blasticidin S]	~7.52	6 fold	–	–
kirromycin	–	–	50 µg/mL	100 µg/mL
